Test results reported in the NIST ThermoML archive (doi:10.1016/j.jct.2006.05.004).

How the values were obtained:
[1] = xn = mol fraction of the nth substance listed; conditions: 298.15 K, 101 kPa, Liquid
[2] = excess molar enthalpy (molar enthalpy of mixing); xn = mol fraction of the nth substance listed; conditions: 298.15 K, 101 kPa, Liquid

BrCCCCBr [1,4-dibromobutane] + CCCCC(=O)OC
Conditions	excess molar enthalpy [kcal/mol]	mass density [kg/m3]
[1], x2 = 0.0627	–	1757.47
[1], x2 = 0.1071	–	1711.91
[1], x2 = 0.1637	–	1654.55
[1], x2 = 0.2171	–	1601.18
[1], x2 = 0.3252	–	1495.18
[1], x2 = 0.4423	–	1383.13
[1], x2 = 0.5031	–	1326.06
[1], x2 = 0.621	–	1217.29
[1], x2 = 0.6839	–	1160.44
[1], x2 = 0.7415	–	1108.9
[1], x2 = 0.8021	–	1055.26
[1], x2 = 0.9296	–	944.62
[2], x2 = 0.0592	0.0081	–
[2], x2 = 0.1366	0.0138	–
[2], x2 = 0.2206	0.0173	–
[2], x2 = 0.3061	0.0161	–
[2], x2 = 0.3802	0.0125	–
[2], x2 = 0.4461	0.00566	–
[2], x2 = 0.4526	0.00449	–
[2], x2 = 0.4992	-0.00124	–
[2], x2 = 0.5566	-0.00686	–
[2], x2 = 0.6213	-0.0107	–
[2], x2 = 0.6979	-0.0116	–
[2], x2 = 0.7947	-0.0115	–
[2], x2 = 0.9001	-0.0075	–

BrCCCCBr [1,4-dibromobutane] + COC(C)=O
Conditions	excess molar enthalpy [kcal/mol]	mass density [kg/m3]
[1], x2 = 0.0837	–	1770.14
[1], x2 = 0.1689	–	1713.04
[1], x2 = 0.2373	–	1664.79
[1], x2 = 0.3235	–	1601.13
[1], x2 = 0.3783	–	1558.38
[1], x2 = 0.4433	–	1505.87
[1], x2 = 0.5073	–	1451.51
[1], x2 = 0.5682	–	1397.42
[1], x2 = 0.6216	–	1347.79
[1], x2 = 0.6771	–	1293.95
[1], x2 = 0.7431	–	1226.93
[1], x2 = 0.8273	–	1135.92
[1], x2 = 0.9151	–	1033.42
[1], x2 = 0.9603	–	977.5
[2], x2 = 0.0848	0.0432	–
[2], x2 = 0.1755	0.0741	–
[2], x2 = 0.2635	0.0955	–
[2], x2 = 0.3449	0.109	–
[2], x2 = 0.4161	0.116	–
[2], x2 = 0.4816	0.118	–
[2], x2 = 0.5389	0.115	–
[2], x2 = 0.5872	0.109	–
[2], x2 = 0.6316	0.103	–
[2], x2 = 0.6695	0.0954	–
[2], x2 = 0.7038	0.089	–
[2], x2 = 0.755	0.0763	–
[2], x2 = 0.8095	0.062	–
[2], x2 = 0.8632	0.046	–
[2], x2 = 0.9128	0.0316	–
[2], x2 = 0.9584	0.0149	–

BrCCCCBr [1,4-dibromobutane] + COC=O
Conditions	excess molar enthalpy [kcal/mol]	mass density [kg/m3]
[1], x2 = 0.0901	–	1776.76
[1], x2 = 0.1948	–	1721.83
[1], x2 = 0.283	–	1670.26
[1], x2 = 0.3632	–	1619.15
[1], x2 = 0.4351	–	1569.44
[1], x2 = 0.5042	–	1517.68
[1], x2 = 0.5678	–	1466.2
[1], x2 = 0.6267	–	1414.75
[1], x2 = 0.6804	–	1364.36
[1], x2 = 0.7742	–	1267.13
[1], x2 = 0.8172	–	1217.73
[1], x2 = 0.8611	–	1164.21
[1], x2 = 0.8985	–	1115.55
[1], x2 = 0.937	–	1062.14
[1], x2 = 0.9687	–	1015.8
[2], x2 = 0.1163	0.0944	–
[2], x2 = 0.2218	0.152	–
[2], x2 = 0.3327	0.205	–
[2], x2 = 0.4395	0.235	–
[2], x2 = 0.518	0.245	–
[2], x2 = 0.581	0.243	–
[2], x2 = 0.5984	0.241	–
[2], x2 = 0.6591	0.226	–
[2], x2 = 0.7346	0.196	–
[2], x2 = 0.8107	0.155	–
[2], x2 = 0.8851	0.104	–
[2], x2 = 0.9503	0.0502	–

BrCCCCCBr [1,5-dibromopentane] + CCC(=O)OC
Conditions	excess molar enthalpy [kcal/mol]	mass density [kg/m3]
[1], x2 = 0.0841	–	1644.47
[1], x2 = 0.1537	–	1602.6
[1], x2 = 0.1671	–	1594.29
[1], x2 = 0.2971	–	1510.79
[1], x2 = 0.3661	–	1463.62
[1], x2 = 0.4312	–	1417.3
[1], x2 = 0.4903	–	1373.47
[1], x2 = 0.609	–	1280.2
[1], x2 = 0.6628	–	1235.27
[1], x2 = 0.716	–	1189.3
[1], x2 = 0.8143	–	1099.41
[1], x2 = 0.864	–	1051.37
[1], x2 = 0.9561	–	957.37
[2], x2 = 0.0808	0.0283	–
[2], x2 = 0.1674	0.0457	–
[2], x2 = 0.2542	0.0591	–
[2], x2 = 0.3326	0.0658	–
[2], x2 = 0.4065	0.068	–
[2], x2 = 0.4708	0.0667	–
[2], x2 = 0.4974	0.0651	–
[2], x2 = 0.5293	0.0628	–
[2], x2 = 0.5381	0.0621	–
[2], x2 = 0.5791	0.0574	–
[2], x2 = 0.584	0.0562	–
[2], x2 = 0.6329	0.0509	–
[2], x2 = 0.6845	0.0433	–
[2], x2 = 0.7383	0.0366	–
[2], x2 = 0.7938	0.0284	–
[2], x2 = 0.8494	0.0202	–
[2], x2 = 0.9053	0.0112	–
[2], x2 = 0.955	0.00521	–

BrCCCCCBr [1,5-dibromopentane] + CCCC(=O)OC
Conditions	excess molar enthalpy [kcal/mol]	mass density [kg/m3]
[1], x2 = 0.0754	–	1642.8
[1], x2 = 0.1463	–	1593.12
[1], x2 = 0.2087	–	1548.48
[1], x2 = 0.2699	–	1503.86
[1], x2 = 0.3456	–	1447.37
[1], x2 = 0.454	–	1363.99
[1], x2 = 0.573	–	1268.9
[1], x2 = 0.6279	–	1223.66
[1], x2 = 0.6902	–	1171.2
[1], x2 = 0.7398	–	1128.65
[1], x2 = 0.7971	–	1078.54
[1], x2 = 0.8961	–	989.47
[1], x2 = 0.9526	–	937.22
[2], x2 = 0.0788	0.015	–
[2], x2 = 0.1742	0.0254	–
[2], x2 = 0.2762	0.0325	–
[2], x2 = 0.374	0.0341	–
[2], x2 = 0.461	0.0309	–
[2], x2 = 0.5359	0.0249	–
[2], x2 = 0.5693	0.0214	–
[2], x2 = 0.6313	0.0152	–
[2], x2 = 0.7089	0.0093	–
[2], x2 = 0.7917	0.00514	–
[2], x2 = 0.8725	0.00258	–
[2], x2 = 0.946	0.00131	–

BrCCCCCBr [1,5-dibromopentane] + CCCCC(=O)OC
Conditions	excess molar enthalpy [kcal/mol]	mass density [kg/m3]
[1], x2 = 0.0687	–	1640.97
[1], x2 = 0.1285	–	1593.96
[1], x2 = 0.1833	–	1550.6
[1], x2 = 0.2445	–	1501.98
[1], x2 = 0.3066	–	1452.48
[1], x2 = 0.4193	–	1362.14
[1], x2 = 0.4804	–	1312.78
[1], x2 = 0.5408	–	1263.86
[1], x2 = 0.601	–	1214.87
[1], x2 = 0.6553	–	1170.47
[1], x2 = 0.7137	–	1122.58
[1], x2 = 0.7698	–	1076.41
[1], x2 = 0.822	–	1033.27
[1], x2 = 0.8841	–	981.75
[2], x2 = 0.0709	0.011	–
[2], x2 = 0.1603	0.0179	–
[2], x2 = 0.2511	0.0203	–
[2], x2 = 0.3436	0.0192	–
[2], x2 = 0.4221	0.0158	–
[2], x2 = 0.4895	0.0112	–
[2], x2 = 0.5345	0.00609	–
[2], x2 = 0.5389	0.00564	–
[2], x2 = 0.5838	0.00184	–
[2], x2 = 0.606	-0.00203	–
[2], x2 = 0.6821	-0.00554	–
[2], x2 = 0.7721	-0.00777	–
[2], x2 = 0.8617	-0.00657	–
[2], x2 = 0.943	-0.000574	–

BrCCCCCBr [1,5-dibromopentane] + COC(C)=O
Conditions	excess molar enthalpy [kcal/mol]	mass density [kg/m3]
[1], x2 = 0.0956	–	1647.08
[1], x2 = 0.1844	–	1601.35
[1], x2 = 0.2647	–	1557.01
[1], x2 = 0.3394	–	1512.51
[1], x2 = 0.4752	–	1423.41
[1], x2 = 0.5958	–	1333.86
[1], x2 = 0.6582	–	1282.77
[1], x2 = 0.7059	–	1241.33
[1], x2 = 0.7548	–	1196.56
[1], x2 = 0.8019	–	1150.87
[1], x2 = 0.8486	–	1102.92
[1], x2 = 0.8874	–	1060.93
[1], x2 = 0.9243	–	1019.18
[1], x2 = 0.9638	–	972.17
[2], x2 = 0.1045	0.0536	–
[2], x2 = 0.2048	0.0886	–
[2], x2 = 0.2959	0.115	–
[2], x2 = 0.3795	0.13	–
[2], x2 = 0.454	0.137	–
[2], x2 = 0.5171	0.137	–
[2], x2 = 0.5731	0.133	–
[2], x2 = 0.622	0.127	–
[2], x2 = 0.685	0.116	–
[2], x2 = 0.7322	0.103	–
[2], x2 = 0.7812	0.0893	–
[2], x2 = 0.8296	0.0734	–
[2], x2 = 0.874	0.0585	–
[2], x2 = 0.9245	0.0386	–
[2], x2 = 0.9655	0.0173	–
